Source: the NIST ThermoML archive (doi:10.1021/je800110r)

Details: Liquid, Vibrating tube method

CCCCCCCCCC [decane]
Details	mass density [kg/m3]
293.15 K, 34214 kPa	753.1
293.15 K, 34239 kPa	753.1
293.15 K, 34259 kPa	753.1
293.15 K, 34285 kPa	753.1
293.15 K, 34303 kPa	753.1
293.16 K, 19215 kPa	743.7
293.16 K, 19235 kPa	743.6
293.16 K, 19274 kPa	743.8
293.16 K, 19292 kPa	743.6
293.16 K, 19437 kPa	743.9
293.16 K, 33877 kPa	753
303.14 K, 364 kPa	722.4
303.14 K, 380 kPa	722.3
303.14 K, 402 kPa	722.5
303.14 K, 424 kPa	722.6
303.14 K, 441 kPa	722.6
303.14 K, 462 kPa	722.5
303.14 K, 488 kPa	722.6
303.14 K, 520 kPa	722.6
303.14 K, 547 kPa	722.7
303.14 K, 571 kPa	722.7
303.14 K, 602 kPa	722.8
303.14 K, 632 kPa	722.7
303.14 K, 677 kPa	722.6
303.14 K, 720 kPa	722.8
303.14 K, 760 kPa	722.8
303.14 K, 810 kPa	722.9
303.14 K, 862 kPa	723
303.14 K, 904 kPa	723
303.14 K, 946 kPa	723
303.14 K, 997 kPa	723
303.14 K, 1037 kPa	723
303.14 K, 1220 kPa	723.2
303.14 K, 1295 kPa	723.2
303.14 K, 1434 kPa	723.4
303.14 K, 1467 kPa	723.4
303.14 K, 1497 kPa	723.4
303.14 K, 1538 kPa	723.5
303.14 K, 1586 kPa	723.5
303.14 K, 1619 kPa	723.4
303.14 K, 1670 kPa	723.5
303.14 K, 1705 kPa	723.5
303.14 K, 1760 kPa	723.6
303.14 K, 1816 kPa	723.7
303.14 K, 1856 kPa	723.7
303.14 K, 1904 kPa	723.8
303.14 K, 1955 kPa	723.9
303.14 K, 1986 kPa	724
303.14 K, 2021 kPa	723.9
303.14 K, 2067 kPa	723.9
303.14 K, 2099 kPa	723.9
303.14 K, 2132 kPa	723.9
303.14 K, 2177 kPa	724
303.14 K, 2229 kPa	724
303.14 K, 2270 kPa	723.9
303.14 K, 2320 kPa	724.1
303.14 K, 2376 kPa	724.2
303.14 K, 2415 kPa	724.1
303.14 K, 2455 kPa	724.1
303.14 K, 2518 kPa	724.3
303.14 K, 2560 kPa	724.3
303.14 K, 2611 kPa	724.3
303.14 K, 2680 kPa	724.4
303.14 K, 2736 kPa	724.4
303.14 K, 2782 kPa	724.5
303.14 K, 2818 kPa	724.6
303.14 K, 2834 kPa	724.6
303.14 K, 3457 kPa	725
303.14 K, 3518 kPa	725.1
303.15 K, 1065 kPa	723
303.15 K, 1099 kPa	723.2
303.15 K, 1144 kPa	723.2
303.15 K, 1175 kPa	723.2
303.15 K, 1261 kPa	723.3
303.15 K, 1325 kPa	723.2
303.15 K, 1363 kPa	723.2
303.15 K, 1385 kPa	723.3
303.15 K, 2849 kPa	724.6
303.15 K, 2899 kPa	724.6
303.15 K, 2942 kPa	724.7
303.15 K, 2968 kPa	724.7
303.15 K, 3005 kPa	724.8
303.15 K, 3039 kPa	724.6
303.15 K, 3070 kPa	724.7
303.15 K, 3105 kPa	724.8
303.15 K, 3140 kPa	724.8
303.15 K, 3167 kPa	724.9
303.15 K, 3207 kPa	724.8
303.15 K, 3250 kPa	724.9
303.15 K, 3283 kPa	725
303.15 K, 3333 kPa	724.9
303.15 K, 3363 kPa	725
303.15 K, 3400 kPa	725
303.15 K, 3487 kPa	725.1
303.15 K, 3503 kPa	724.9
303.15 K, 3530 kPa	725.1
303.15 K, 3542 kPa	725
303.15 K, 3556 kPa	725.2
303.15 K, 3568 kPa	725.1
303.15 K, 3587 kPa	725.2
303.15 K, 3606 kPa	725.2
303.15 K, 3618 kPa	725.1
303.15 K, 3637 kPa	725.3
303.15 K, 3655 kPa	725.2
303.15 K, 3668 kPa	725.4
303.15 K, 3688 kPa	725.3
303.15 K, 3707 kPa	725.2
303.15 K, 3720 kPa	725.3
303.15 K, 3735 kPa	725.3
303.15 K, 3753 kPa	725.3
303.15 K, 3770 kPa	725.3
303.15 K, 3790 kPa	725.3
303.15 K, 3808 kPa	725.3
303.15 K, 3820 kPa	725.3
303.15 K, 3840 kPa	725.4
303.15 K, 3855 kPa	725.4
303.15 K, 3871 kPa	725.3
303.15 K, 3885 kPa	725.3
303.15 K, 3902 kPa	725.5
303.15 K, 3916 kPa	725.5
303.15 K, 3938 kPa	725.5
303.15 K, 3958 kPa	725.4
303.15 K, 3974 kPa	725.4
303.15 K, 3988 kPa	725.4
303.15 K, 4013 kPa	725.5
303.15 K, 4029 kPa	725.5
303.15 K, 4042 kPa	725.6
303.15 K, 4059 kPa	725.5
303.15 K, 4074 kPa	725.5
303.15 K, 4089 kPa	725.6
303.15 K, 4104 kPa	725.6
303.15 K, 4122 kPa	725.6
303.15 K, 4137 kPa	725.5
303.15 K, 4153 kPa	725.7
303.15 K, 4172 kPa	725.7
303.15 K, 4188 kPa	725.7
303.15 K, 24341 kPa	740.5
303.15 K, 24369 kPa	740.3
303.15 K, 24389 kPa	740.3
303.15 K, 24417 kPa	740.4
303.15 K, 24444 kPa	740.4
303.15 K, 24484 kPa	740.5
303.15 K, 24509 kPa	740.4
303.15 K, 24577 kPa	740.5
303.15 K, 24654 kPa	740.6
303.15 K, 24804 kPa	740.6
303.15 K, 24833 kPa	740.7
303.15 K, 24870 kPa	740.7
303.15 K, 24908 kPa	740.7
303.15 K, 24929 kPa	740.7
303.15 K, 24962 kPa	740.7
303.15 K, 24995 kPa	740.8
303.15 K, 25025 kPa	740.7
303.15 K, 25050 kPa	740.7
303.15 K, 25648 kPa	741.1
303.15 K, 25678 kPa	741.3
303.15 K, 25713 kPa	741.2
303.15 K, 25744 kPa	741.3
303.15 K, 25771 kPa	741.3
303.15 K, 25839 kPa	741.3
303.15 K, 25875 kPa	741.2
303.15 K, 25902 kPa	741.4
303.15 K, 25935 kPa	741.4
303.15 K, 25959 kPa	741.5
303.15 K, 26009 kPa	741.4
303.15 K, 26041 kPa	741.5
303.15 K, 26073 kPa	741.5
303.15 K, 26100 kPa	741.5
303.15 K, 26137 kPa	741.5
303.15 K, 26164 kPa	741.5
303.15 K, 26206 kPa	741.5
303.15 K, 26242 kPa	741.5
303.15 K, 26270 kPa	741.6
303.15 K, 26309 kPa	741.6
303.15 K, 26334 kPa	741.6
303.15 K, 26357 kPa	741.7
303.15 K, 26400 kPa	741.7
303.15 K, 26433 kPa	741.8
303.15 K, 26465 kPa	741.7
303.15 K, 26494 kPa	741.7
303.15 K, 26532 kPa	741.8
303.15 K, 26574 kPa	741.8
303.15 K, 26607 kPa	741.9
303.15 K, 26640 kPa	741.8
303.15 K, 26684 kPa	741.9
303.15 K, 26718 kPa	741.8
303.15 K, 26752 kPa	741.9
303.15 K, 26781 kPa	741.9
303.15 K, 26820 kPa	741.9
303.15 K, 26844 kPa	741.9
303.15 K, 26884 kPa	741.9
303.15 K, 26923 kPa	742
303.15 K, 26947 kPa	742
303.15 K, 26982 kPa	742.1
303.15 K, 27007 kPa	742
303.15 K, 27037 kPa	742.2
303.15 K, 27071 kPa	742.1
303.15 K, 27116 kPa	742.2
303.15 K, 27156 kPa	742.2
303.15 K, 27186 kPa	742.1
303.15 K, 27226 kPa	742.2
303.15 K, 27262 kPa	742.2
303.15 K, 27298 kPa	742.3
303.15 K, 27333 kPa	742.3
303.15 K, 27375 kPa	742.4
303.15 K, 27400 kPa	742.4
303.15 K, 27431 kPa	742.3
303.15 K, 27462 kPa	742.4
303.15 K, 27503 kPa	742.3
303.15 K, 27535 kPa	742.4
303.15 K, 27585 kPa	742.4
303.15 K, 27622 kPa	742.4
303.15 K, 27666 kPa	742.4
303.15 K, 27697 kPa	742.5
303.15 K, 27724 kPa	742.6
303.15 K, 27748 kPa	742.5
303.15 K, 27771 kPa	742.6
303.15 K, 27803 kPa	742.5
303.15 K, 27827 kPa	742.7
303.15 K, 27859 kPa	742.6
303.15 K, 27890 kPa	742.6
303.15 K, 27923 kPa	742.8
303.15 K, 27952 kPa	742.6
303.15 K, 27975 kPa	742.7
303.15 K, 27999 kPa	742.8
303.15 K, 28032 kPa	742.7
303.15 K, 28057 kPa	742.8
303.15 K, 28085 kPa	742.7
303.15 K, 28118 kPa	742.9
303.15 K, 28151 kPa	742.8
303.15 K, 28180 kPa	742.9
303.15 K, 28205 kPa	742.8
303.15 K, 28234 kPa	742.9
303.15 K, 28258 kPa	742.9
303.15 K, 28289 kPa	742.9
303.15 K, 28314 kPa	742.9
303.15 K, 28343 kPa	743
303.15 K, 28369 kPa	743
303.15 K, 28399 kPa	743.1
303.15 K, 28443 kPa	743
303.15 K, 28470 kPa	743.1
303.15 K, 28511 kPa	743.2
303.15 K, 28542 kPa	743.1
303.15 K, 28562 kPa	743.1
303.15 K, 28584 kPa	743.2
303.15 K, 28605 kPa	743.1
303.15 K, 28622 kPa	743.2
303.15 K, 28643 kPa	743.1
303.15 K, 28666 kPa	743.1
303.15 K, 28685 kPa	743.3
303.15 K, 28705 kPa	743.2
303.15 K, 28725 kPa	743.2
303.15 K, 28754 kPa	743.3
303.15 K, 28771 kPa	743.3
303.15 K, 28791 kPa	743.3
303.15 K, 28809 kPa	743.2
303.15 K, 28826 kPa	743.2
303.15 K, 28844 kPa	743.4
303.15 K, 28865 kPa	743.2
303.15 K, 28885 kPa	743.3
303.15 K, 28902 kPa	743.2
303.15 K, 28928 kPa	743.4
303.15 K, 28945 kPa	743.3
303.15 K, 28966 kPa	743.4
303.15 K, 28986 kPa	743.4
303.15 K, 29000 kPa	743.5
303.15 K, 29018 kPa	743.4
303.15 K, 29042 kPa	743.4
303.15 K, 29062 kPa	743.4
303.15 K, 29083 kPa	743.4
303.15 K, 29107 kPa	743.4
303.15 K, 29131 kPa	743.5
303.15 K, 29154 kPa	743.4
